Where a name gives a salt, the structure may show the parent alone.
Columns and labels:
human mPGES-1 = human mPGES-1 (Homo sapiens (Human), UniProt O14684); test: mPGES-1 inhibitory activity test; format: biochemical; details: for inhibition at 0.01 µM: 10 nM test compound; for IC50: microsomes of CHO-K1 cells expressing human mPGES-1, PGH2 1 μM, PGE2 by HTRF, read-out: mPGES-1 inhibition (IC50 nM); for inhibition at 0.1 µM: 100 nM test compound
In short: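 PGE2 formation was quantified by HTRF and reported as percent inhibition at 10 and 100 nM compound or as IC50. The 60-second reaction at 4° C used 1 μM PGH2, after a 20-minute 4° C preincubation of compound (1% DMSO final) with glutathione-supplemented (2.5 mM, pH 7.4) microsomes. The microsomes were from transiently transfected CHO-K1 cells expressing human mPGES-1.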

human A549 cells = test: Inhibition test of PGE2 production using human A549 cells; format: cell-based; details: IL-1β stimulated A549 cells, 24 h, PGE2 by HTRF, read-out: A549 cell inhibition of PGE2 production IC50
In short: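 PGE2 (HTRF) and PGF2a (EIA) were quantified in medium after 24 h, 37°C IL-1β stimulation (5 ng/well) of human A549 cells that had received test compound 60 min beforehand (0.1% DMSO, 3% FBS RPMI). IC50 relative to the window between IL-1β-stimulated and unstimulated controls.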

Chain of human mPGES-1 (O14684 whole entry): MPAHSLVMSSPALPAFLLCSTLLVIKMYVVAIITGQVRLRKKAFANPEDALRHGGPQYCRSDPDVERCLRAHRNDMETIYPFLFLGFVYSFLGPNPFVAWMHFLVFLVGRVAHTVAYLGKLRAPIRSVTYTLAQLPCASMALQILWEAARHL

Row | Compound | inhibition at 0.01 µM (human mPGES-1) [%] | IC50 (human A549 cells) [nM] | IC50 (human mPGES-1) [nM] | inhibition at 0.1 µM (human mPGES-1) [%]
1 | CCC(O)(CC)C(=O)NCc1ccc(Cl)c(C(=O)Nc2cccc3c2cnn3-c2ccc(C(F)(F)F)cc2)c1 [Example 41, 2-Chloro-5-{[(2-ethyl-2-hydroxybutanoyl)amino]methyl}-N-{1-[4-(trifluoromethyl)phenyl]-1H-indazol-4-yl}benzamide] |  | 13.7 | 1 | 
2 | O=C(Nc1cccc2c1cnn2-c1ccccn1)c1cc(CNC(=O)C2CC2)ccc1Cl [Example 8, 2-Chloro-5-{[(cyclopropylcarbonyl)amino]methyl}-N-[1-(pyridin-2-yl)-1H-indazol-4-yl]benzamide] |  | 11.3 | 3.9 | 
3 | COCC(=O)NCc1ccc(Cl)c(C(=O)Nc2cccc3c2cnn3-c2ccc(Cl)cc2)c1 [Example 148, 2-Chloro-N-[1-(4-chlorophenyl)-1H-indazol-4-yl]-5-([(methoxyacetyl)amino]methyl)benzamide] | 70 | 4.2 |  | 100
4 | CC(C)(C)C(=O)NCc1ccc(Cl)c(C(=O)Nc2cccc3c2cnn3-c2ccc(C#N)nc2)c1 [Example 72, 2-Chloro-N-[1-(6-cyanopyridin-3-yl)-1H-indazol-4-yl]-5-([(2,2-dimethylpropanoyl)amino]methyl)benzamide] |  | 11.5 | 6.2 | 
5 | O=C(Nc1cccc2c1cnn2-c1ccc(F)cc1)c1cc(CNS(=O)(=O)C2CC2)ccc1Cl [Example 157, 2-Chloro-5-{[(cyclopropylsulfonyl)amino]methyl}-N-[1-(4-fluorophenyl)-1H-indazol-4-yl]benzamide] | 100 | 14.6 |  | 
6 | O=C(NCc1ccc(Cl)c(C(=O)Nc2cccc3c2cnn3-c2ccc(C(F)(F)F)cc2)c1)c1ccccc1 [Example 22, 2-Chloro-5-{[(phenylcarbonyl)amino]methyl}-N-{1-[4-(trifluoromethyl)phenyl]-1H-indazol-4-yl}benzamide] |  | 12.8 | 3.3 | 
7 | CCn1ncc2c(NC(=O)c3cc(CNC(=O)C4CCCC4)ccc3Cl)cccc21 [Example 211, 2-Chloro-5-{[(cyclopentylcarbonyl)amino]methyl}-N-(1-ethyl-1H-indazol-4-yl)benzamide] | 84 | 65.8 |  | 
8 | O=C(Nc1cccc2c1cnn2-c1ccc(C(F)(F)F)cc1)c1cc(CNC(=O)C23CC4CC(CC(C4)C2)C3)ccc1Cl [Example 32, N-[4-chloro-3-({1-[4-(trifluoromethyl)phenyl]-1H-indazol-4-yl}carbamoyl)benzyl]tricyclo[3.3.1.1^3,]decane-1-carboxamide] |  | 12.1 | 23 | 
9 | Cc1ccc(-n2ncc3c(NC(=O)c4cc(CNC(=O)C5(O)CC5)ccc4Cl)cccc32)cc1C(F)(F)F [Example 257, 2-Chloro-5-({[(1-hydroxycyclopropyl)carbonyl]amino}methyl)-N-{1-[4-methyl-3-(trifluoromethyl)phenyl]-1H-indazol-4-yl}benzamide] | 94 | 4.3 |  | 96
10 | CC(C)(CO)C(=O)NCc1ccc(Cl)c(C(=O)Nc2cccc3c2cnn3-c2cncc(C(F)(F)F)c2)c1 [Example 171, 2-Chloro-5-{[(3-hydroxy-2,2-dimethylpropanoyl)amino]methyl}-N-{1-[5-(trifluoromethyl)pyridin-3-yl]-1H-indazol-4-yl}benzamide] |  | 9.6 |  | 100
11 | CCn1ncc2c(NC(=O)c3cc(CNC(=O)CC(C)(C)C)ccc3Cl)cccc21 [Example 210, 2-Chloro-5-{[(3,3-dimethylbutanoyl)amino]methyl}-N-(1-ethyl-1H-indazol-4-yl)benzamide] | 64 | 379 |  | 
12 | O=C(Nc1cccc2c1cnn2-c1cccc(OC(F)(F)F)c1)c1cc(CNC(=O)C2(C(F)(F)F)CC2)ccc1Cl [Example 123, 2-Chloro-N-{1-[3-(trifluoromethoxy)phenyl]-1H-indazol-4-yl}-5-[({[1-(trifluoromethyl)cyclopropyl]carbonyl}amino)methyl]benzamide] | 98 | 5.1 |  | 
13 | O=C(Nc1cccc2c1cnn2-c1ccc(F)cc1)c1cc(CNC(=O)C2(O)CC2)ccc1Cl [Example 154, 2-Chloro-N-[1-(4-fluorophenyl)-1H-indazol-4-yl]-5-({[(1-hydroxycyclopropyl)carbonyl]amino}methyl)benzamide] | 58 | 17.6 |  | 89
14 | Cc1ncccc1-n1ncc2c(NC(=O)c3cc(CNC(=O)C(C)(C)C)ccc3Cl)cccc21 [Example 56, 2-Chloro-5-{[(2,2-dimethylpropanoyl)amino]methyl}-N-[1-(2-methylpyridin-3-yl)-1H-indazol-4-yl]benzamide hydrochloride] |  | 183 | 23.6 | 

Results, then the molecule that gave them:

Row | inhibition at 0.01 µM (human mPGES-1) [%] | IC50 (human A549 cells) [nM] | IC50 (human mPGES-1) [nM] | inhibition at 0.1 µM (human mPGES-1) [%] | Compound
15 | 61 | 3.3 |  |  | COCC(=O)NCc1ccc(Cl)c(C(=O)Nc2cccc3c2cnn3-c2cccc(C(F)(F)F)c2)c1 [Example 222, 2-Chloro-5-{[(methoxyacetyl)amino]methyl}-N-{1-[3-(trifluoromethyl)phenyl]-1H-indazol-4-yl}benzamide]
16 | 94 | 3.2 |  |  | CC(C)(CO)C(=O)NCc1ccc(Cl)c(C(=O)Nc2cccc3c2cnn3-c2ccc(Cl)cc2)c1 [Example 149, 2-Chloro-N-[1-(4-chlorophenyl)-1H-indazol-4-yl]-5-{[(3-hydroxy-2,2-dimethylpropanoyl)amino]methyl}benzamide]
17 | 85 | 0.9 |  |  | O=C(Nc1cccc2c1cnn2-c1ccc(Cl)cc1)c1cc(CNC(=O)C2(C(F)(F)F)CC2)ccc1Cl [Example 147, 2-Chloro-N-[1-(4-chlorophenyl)-1H-indazol-4-yl]-5-[({[1-(trifluoromethyl)cyclopropyl]carbonyl}amino)methyl]benzamide]
18 | 100 | 1 |  |  | O=C(Nc1cccc2c1cnn2-c1ccc(F)cc1)c1cc(CNC(=O)C2(C(F)(F)F)CC2)ccc1Cl [Example 153, 2-Chloro-N-[1-(4-fluorophenyl)-1H-indazol-4-yl]-5-[({[1-(trifluoromethyl)cyclopropyl]carbonyl}amino)methyl]benzamide]
19 | 78 | 0.6 |  |  | CC(C)(CO)C(=O)NCc1ccc(Cl)c(C(=O)Nc2cccc3c2cnn3-c2cccc(C(F)(F)F)c2)c1 [Example 223, 2-Chloro-5-{[(3-hydroxy-2,2-dimethylpropanoyl)amino]methyl}-N-{1-[3-(trifluoromethyl)phenyl]-1H-indazol-4-yl}benzamide]
20 |  | 2.6 | 5.5 |  | O=C(Nc1cccc2c1cnn2-c1ccc(C(F)(F)F)cc1)c1cc(CNC(=O)C2CCCC2)ccc1Cl [Example 30, 2-Chloro-5-{[(cyclopentylcarbonyl)amino]methyl}-N-{1-[4-(trifluoromethyl)phenyl]-1H-indazol-4-yl}benzamide]
21 |  | 1.9 | 1.4 |  | CC(C)(C)C(=O)NCc1ccc(Cl)c(C(=O)Nc2cccc3c2cnn3-c2cncc(C3CC3)c2)c1 [Example 64, 2-Chloro-N-[1-(5-cyclopropylpyridin-3-yl)-1H-indazol-4-yl]-5-{[(2,2-dimethylpropanoyl)amino]methyl}benzamide hydrochloride]
22 |  | 3.3 | 1.2 |  | COc1cc(-n2ncc3c(NC(=O)c4cc(CNC(=O)C(C)(C)C)ccc4Cl)cccc32)ccn1 [Example 73, 2-Chloro-5-{[(2,2-dimethylpropanoyl)amino]methyl}-N-[1-(2-methoxypyridin-4-yl)-1H-indazol-4-yl]benzamide hydrochloride]
23 |  | 4.1 | 2.2 |  | Cc1ccccc1-n1ncc2c(NC(=O)c3cc(CNC(=O)C4CC4)ccc3Cl)cccc21 [Example 9, 2-Chloro-5-{[(cyclopropylcarbonyl)amino]methyl}-N-[1-(2-methylphenyl)-1H-indazol-4-yl]benzamide]
24 | 83 | < 1 |  |  | O=C(Nc1cccc2c1cnn2-c1cccc(C(F)(F)F)c1)c1cc(CNS(=O)(=O)C2CC2)ccc1Cl [Example 224, 2-Chloro-5-{[(cyclopropylsulfonyl)amino]methyl}-N-{1-[3-(trifluoromethyl)phenyl]-1H-indazol-4-yl}benzamide]
25 | 100 | 2.9 |  |  | O=C(Nc1cccc2c1cnn2-c1cccc(OC(F)(F)F)c1)c1cc(CNC(=O)C2CCCC2)ccc1Cl [Example 122, 2-Chloro-5-{[(cyclopentylcarbonyl)amino]methyl}-N-{1-[3-(trifluoromethoxy)phenyl]-1H-indazol-4-yl}benzamide]
26 |  | 1 | 6.1 |  | CCC(=O)NCc1ccc(Cl)c(C(=O)Nc2cccc3c2cnn3-c2ccc(C(F)(F)F)cc2)c1 [Example 19, 2-Chloro-5-[(propanoylamino)methyl]-N-{1-[4-(trifluoromethyl)phenyl]-1H-indazol-4-yl}benzamide]
27 |  | 0.6 | 1.3 |  | Cc1ccc(-n2ncc3c(NC(=O)c4cc(CNC(=O)C5CC5)ccc4Cl)cccc32)cc1 [Example 6, 2-Chloro-5-{[(cyclopropylcarbonyl)amino]methyl}-N-[1-(4-methylphenyl)-1H-indazol-4-yl]benzamide]
28 |  | 1 | 1.1 |  | CC(C)(C)C(=O)NCc1ccc(Cl)c(C(=O)Nc2cccc3c2cnn3-c2ccc(C(F)(F)F)nc2)c1 [Example 77, 2-Chloro-5-{[(2,2-dimethylpropanoyl)amino]methyl}-N-{1-[6-(trifluoromethyl)pyridin-3-yl]-1H-indazol-4-yl}benzamide]

Reference: US20250059172A1, “INDAZOLE COMPOUND AND PHARMACEUTICAL” (NIPPON SHINYAKU CO., LTD., priority 2021, published 2025)
